Results as given in patent US11464802B2, “3-substituted piperidine compounds for Cbl-b inhibition, and use thereof” (Nurix Therapeutics, Inc., priority 2019, dated 2022).
Read-outs that look alike come from different tables or passages of the source.

Tests used:
Cbl-b = Cbl-b (Homo sapiens (Human), UniProt Q13191); experiment: Cbl-b displacement assay (Cbl-b inhibition assay), TR-FRET probe displacement, Biological Example 1; type: binding
Protocol: Candidate compounds were evaluated for their ability to bind and inhibit Cbl-b, an E3 ubiquitin-protein ligase, as evidenced by their ability to displace a fluorophore-labeled probe (Example 46) bound to Cbl-b.
The ability of candidate compounds to displace a known inhibitor and thereby inhibit Cbl-b activity was measured by monitoring the interaction of Cbl-b with a fluorophore-labeled probe in the presence of the candidate compound. A truncated variant of Cbl-b (UniProt number Q13191; SEQ ID NO:1) containing an Avitag at its N-terminus was co-expressed with BirA biotin ligase and purified using a standard protocol (see Dou et al., Nature Structural and Molecular Biology 8: 982-987, 2013; Avidity LLC).
Fluorescently-labeled inhibitor probe was synthesized and tagged with BODIPY FL (Example 46). Cbl-b displacement assays were performed in a 384-well plate at room temperature in a 10 μL reaction volume by pre-incubating 0.5 nM Cbl-b or 0.125 nM Cbl-b (final concentration, indicated as “High” and “Low”, respectively) in an assay buffer containing 20 mM HEPES pH 7.5, 150 mM NaCl, 0.01% Triton X-100, 0.01% BSA, and 0.5 mM TCEP in the presence of a candidate compound in 1% DMSO (final concentration) for 1 hour. After incubation in the presence of the candidate compound, the plate was incubated for an additional 1 hour in the presence of an approximate EC40 binding saturation consisting of 150 nM fluorescently-labeled inhibitor probe and 2 nM Streptavidin-Terbium (Cisbio) (final concentrations). Following the 1 hour incubation, the plates were read for TR-FRET signal at 520/620 nM using an Envision plate reader (Perkin Elmer).

[1] = system: primary human total T-cells; experiment: Primary human total T-cell activation: IL-2 secretion, Biological Example 2; type: cell-based; settings: 48 hours, fold change over baseline; for fold induction at 0.3 µM: inhibitor 0.3 μM; for fold induction at 1 µM: inhibitor 1 μM; for fold induction at 3 µM: inhibitor 3 μM
[2] = system: primary human total T-cells; experiment: Primary human total T-cell activation: CD25 surface staining, Biological Example 2; type: cell-based; settings: 48 hours, fold change over baseline; for fold induction at 0.3 µM: inhibitor 0.3 μM; for fold induction at 1 µM: inhibitor 1 μM; for fold induction at 3 µM: inhibitor 3 μM
[3] = 0.125 nM Cbl-b final concentration (Low), read-out: Cbl-b activity IC50 (Low)
[4] = Cbl-b concentration (High or Low) not given, read-out: IC50 values in the Cbl-b inhibition assay of Biological Example 1
[5] = anti-CD3/anti-CD28 co-stimulation
[6] = anti-CD3/anti-CD28 co-stimulation, read-out: IL-2 secretion CD3/CD28 1 μM
[7] = anti-CD3 alone, read-out: IL-2 secretion CD3 1 μM
[8] = anti-CD3/anti-CD28 co-stimulation, read-out: CD25 staining CD3/CD28 1 μM
[9] = anti-CD3 alone, read-out: CD25 staining CD3 1 μM
[10] = 0.5 nM Cbl-b final concentration (High), read-out: Cbl-b activity IC50 (High)

Chain of Cbl-b (Q13191 36-427): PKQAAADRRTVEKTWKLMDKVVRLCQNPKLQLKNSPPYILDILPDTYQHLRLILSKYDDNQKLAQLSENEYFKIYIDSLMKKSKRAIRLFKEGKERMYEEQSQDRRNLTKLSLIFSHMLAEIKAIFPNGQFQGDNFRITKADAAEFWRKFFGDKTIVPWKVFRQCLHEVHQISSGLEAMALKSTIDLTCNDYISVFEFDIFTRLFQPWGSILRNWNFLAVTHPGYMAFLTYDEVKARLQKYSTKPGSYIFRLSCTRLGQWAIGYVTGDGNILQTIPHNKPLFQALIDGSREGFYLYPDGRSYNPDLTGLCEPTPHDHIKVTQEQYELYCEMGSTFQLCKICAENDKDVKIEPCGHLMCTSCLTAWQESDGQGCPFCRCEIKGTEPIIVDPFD

Structure (SMILES)	IC50 (Cbl-b; [3])	IC50 (Cbl-b; [4])	fold induction at 0.3 µM [1, 5]	fold induction at 1 µM [1, 6]	fold induction at 1 µM [1, 7]	fold induction at 3 µM ([1]; anti-CD3 alone)	fold induction at 0.3 µM [2, 5]	fold induction at 1 µM [2, 8]	fold induction at 1 µM [2, 9]	fold induction at 3 µM ([2]; anti-CD3 alone)	IC50 (Cbl-b; [10])
C[C@H]1CCCN([C@H](C)c2cc3c(c(C4CC4)n2)CN(c2cccc(C4(Cc5nncn5C)COC4)c2)C3=O)C1 [Compound 52, 4-cyclopropyl-2-(3-(3-((4-methyl-4H-1,2,4-triazol-3-yl)methyl)oxetan-3-yl)phenyl)-6-((R)-1-((S)-3-methylpiperidin-1-yl)ethyl)-2,3-dihydro-1H-pyrrolo[3,4-c]pyridin-1-one]	1 to 5 nM	1 to 5 nM	> 15	> 15	> 0.66	> 0.66	> 1.39	> 1.39	> 1.14	> 1.14	–
CCNc1cc(C2(Cc3nncn3C)COC2)cc(N2Cc3c(cc(CN4CCC[C@H](C)C4)nc3C3CC3)C2=O)n1 [Compound 43, 4-cyclopropyl-2-[6-(ethylamino)-4-{3-[(4-methyl-1,2,4-triazol-3-yl)methyl]oxetan-3-yl}pyridin-2-yl]-6-{[(3S)-3-methylpiperidin-1-yl]methyl}-3H-pyrrolo[3,4-c]pyridin-1-one]	1 to 5 nM	–	> 15	> 15	> 0.66	> 0.66	> 1.39	> 1.39	> 1.14	> 1.14	–
C[C@@H]1CN(Cc2cc3c(c(C(F)(F)F)c2)CN(c2cccc(C4(Cc5nncn5C)COC4)c2)C3=O)C[C@H](C)C1(F)F [Compound 17, 6-(((cis)-4,4-difluoro-3,5-dimethylpiperidin-1-yl)methyl)-2-(3-(3-((4-methyl-4H-1,2,4-triazol-3-yl)methyl)oxetan-3-yl)phenyl)-4-(trifluoromethyl)isoindolin-1-one]	–	–	11 to 15	> 15	> 0.66	> 0.66	> 1.39	1.25 to 1.39	> 1.14	> 1.14	1 to 5 nM
C[C@H]1CCCN(Cc2cc3c(c(C(F)(F)F)c2)CN(c2cccc(C4(Cc5nncn5C)COC4)c2)C3=O)[C@H]1C (relative stereo) [Compound 19, 6-((cis-2,3-dimethylpiperidin-1-yl)methyl)-2-(3-(3-((4-methyl-4H-1,2,4-triazol-3-yl)methyl)oxetan-3-yl)phenyl)-4-(trifluoromethyl)isoindolin-1-one]	1 to 5 nM	–	< 10	11 to 15	< 0.33	0.34 to 0.66	1.25 to 1.39	1.25 to 1.39	1.05 to 1.14	1.05 to 1.14	–
C[C@@H]1CN(Cc2cc3c(c(C4CC4)n2)CN(c2cccc(C4(Cc5nncn5C(F)F)COC4)c2)C3=O)CCC1(F)F [Compound 38, 4-cyclopropyl-6-{[(3R)-4,4-difluoro-3-methylpiperidin-1-yl]methyl}-2-[3-(3-{[4-(difluoromethyl)-1,2,4-triazol-3-yl]methyl}oxetan-3-yl)phenyl]-3H-pyrrolo[3,4-c]pyridin-1-one]	1 to 5 nM	1 to 5 nM	> 15	> 15	> 0.66	> 0.66	> 1.39	> 1.39	> 1.14	> 1.14	–
Cn1cnnc1CC1(c2cccc(N3Cc4c(cc(CN5CCCC6(COC6)C5)cc4C(F)(F)F)C3=O)c2)COC1 [Compound 12, 6-((2-oxa-6-azaspiro[3.5]nonan-6-yl)methyl)-2-(3-(3-((4-methyl-4H-1,2,4-triazol-3-yl)methyl)oxetan-3-yl)phenyl)-4-(trifluoromethyl)isoindolin-1-one]	–	5.1 to 100 nM	< 10	11 to 15	< 0.33	< 0.33	1.25 to 1.39	1.25 to 1.39	< 1.04	1.05 to 1.14	5.1 to 100 nM
CCOc1cc(C2(Cc3nncn3C)COC2)cc(N2Cc3c(cc(CN4CCC(F)(F)[C@H](C)C4)nc3C3CC3)C2=O)n1 [Compound 41, 4-cyclopropyl-6-{[(3R)-4,4-difluoro-3-methylpiperidin-1-yl]methyl}-2-(6-ethoxy-4-{3-[(4-methyl-1,2,4-triazol-3-yl)methyl]oxetan-3-yl}pyridin-2-yl)-3H-pyrrolo[3,4-c]pyridin-1-one]	1 to 5 nM	–	> 15	> 15	> 0.66	> 0.66	> 1.39	> 1.39	> 1.14	> 1.14	–
C[C@H]1CN(Cc2cc3c(c(C(F)(F)F)c2)CN(c2cccc(C4(Cc5nncn5C)COC4)c2)C3=O)CCC1(F)F [Compound 9, (S)-6-((4,4-difluoro-3-methylpiperidin-1-yl)methyl)-2-(3-(3-((4-methyl-4H-1,2,4-triazol-3-yl)methyl)oxetan-3-yl)phenyl)-4-(trifluoromethyl)isoindolin-1-one]	–	–	11 to 15	> 15	0.34 to 0.66	0.34 to 0.66	1.25 to 1.39	> 1.39	> 1.14	> 1.14	5.1 to 100 nM
C[C@H](c1cc2c(c(C3CC3)n1)CN(c1cccc(C3(Cc4nncn4C)COC3)c1)C2=O)N1CCC(F)(F)[C@H](C)C1 [Compound 50, 4-cyclopropyl-6-((R)-1-((R)-4,4-difluoro-3-methylpiperidin-1-yl)ethyl)-2-(3-(3-((4-methyl-4H-1,2,4-triazol-3-yl)methyl)oxetan-3-yl)phenyl)-2,3-dihydro-1H-pyrrolo[3,4-c]pyridin-1-one]	< 1 nM	–	> 15	> 15	> 0.66	> 0.66	> 1.39	> 1.39	> 1.14	> 1.14	–
C[C@@H]1CN(Cc2cc3c(c(C(F)(F)F)c2)CN(c2cc(C4(Cc5nncn5C)COC4)cc(C4CC4)n2)C3=O)CCC1(F)F [Compound 30, (R)-2-(6-cyclopropyl-4-(3-((4-methyl-4H-1,2,4-triazol-3-yl)methyl)oxetan-3-yl)pyridin-2-yl)-6-((4,4-difluoro-3-methylpiperidin-1-yl)methyl)-4-(trifluoromethyl)isoindolin-1-one]	–	5.1 to 100 nM	> 15	> 15	0.34 to 0.66	0.34 to 0.66	< 1.24	< 1.24	< 1.04	< 1.04	5.1 to 100 nM
Cn1cnnc1CC1(c2cccc(N3Cc4c(cc(CN5CCCC6(CC6)C5)cc4C(F)(F)F)C3=O)c2)COC1 [Compound 7, 6-((5-azaspiro[2.5]octan-5-yl)methyl)-2-(3-(3-((4-methyl-4H-1,2,4-triazol-3-yl)methyl)oxetan-3-yl)phenyl)-4-(trifluoromethyl)isoindolin-1-one]	–	–	11 to 15	11 to 15	< 0.33	0.34 to 0.66	> 1.39	> 1.39	> 1.14	> 1.14	5.1 to 100 nM
C[C@@H]1CN([C@@H](C)c2cc3c(c(C4CC4)n2)CN(c2cccc(C4(Cc5nncn5C)COC4)c2)C3=O)CCC1(F)F [Compound 49, 4-cyclopropyl-6-((S)-1-((R)-4,4-difluoro-3-methylpiperidin-1-yl)ethyl)-2-(3-(3-((4-methyl-4H-1,2,4-triazol-3-yl)methyl)oxetan-3-yl)phenyl)-2,3-dihydro-1H-pyrrolo[3,4-c]pyridin-1-one]	< 1 nM	–	> 15	> 15	> 0.66	> 0.66	> 1.39	> 1.39	> 1.14	> 1.14	–
